Tests used:
[1] = target: EGFR (d746-750 (d19)/T790M) (Homo sapiens (Human), UniProt P00533, DEL746-750/T790M); experiment: Inhibitory activity for EGFR (d746-750 (d19)/T790M) kinase; assay type: biochemical; conditions: ATP 5 μM
Description: 1.3 Screening for Inhibitory Activity for EGFR (d746-750 (d19)/T790M) Kinase
(§1) A 50 ng/μL EGFR (d746-750/T790M, Carna) stock solution was diluted with a kinase buffer (50 mM HEPES, 10 mM MgCl2, 2 mM DTT, 1 mM EGTA, 0.01% Tween 20), and 6 μL of 1.67× working solution at 0.005 ng/μL (final concentration: 0.003 ng/μL) was added to each well. Different compounds dissolved in DMSO were added to the wells using a nanoliter pipettor, resulting in the final concentrations of the compounds of 10 nM to 0.0024 nM (4-fold gradient for 7 concentrations in total), and blank control wells (without enzyme) and negative control wells (with enzyme, plus vehicle DMSO) were set, 2 replicate wells for each concentration. After enzyme was reacted with the compound or vehicle for 30 min, 5×ATP at 25 μM (final concentration: 5 μM, Sigma) prepared with a kinase buffer was mixed with 5× substrate at 0.5 μM (final concentration: 0.1 μM, ULight-poly GT, PerkinElmer) at a ratio of 1:1 (v:v), and the mixture was added to each well at 4 μL/well. After being sealed with a film, the plate was incubated at room temperature for 2 h, and then 5 μL of 4×EDTA at 40 mM (final concentration: 10 mM) was added to each well. After the plate was incubated for 5 min at room temperature, 5 μL of 4× detection reagent at 8 nM (final concentration: 2 nM, Eu-anti-phospho-tyrosine antibody, PerkinElmer) was added to each well. After being incubated at room temperature for 1 h, the plate was read using a PerkinElmer Envision multi-mode microplate reader (excitation: 320 nm, emission: 665 nm), and IC50 was calculated by four-parameter fitting.

[2] = target: EGFR (d746-750/T790M/C797S) (Homo sapiens (Human), UniProt P00533, C797S/DEL746-750/T790M); experiment: Inhibitory activity for EGFR (d746-750/T790M/C797S) kinase; assay type: biochemical; conditions: ATP 5 μM; read-out: EGFR(d19/T790M/C797S) (IC50)
Description: 1.5 Screening for Inhibitory Activity for EGFR (d746-750/T790M/C797S) Kinase
as §1, with “(d746-750/T790M/C797S, BPS)” for “(d746-750/T790M, Carna)”, “0.05” for “0.005”, “0.03” for “0.003”

[3] = tested on: BAF3-EGFR (L858R/T790M/C797S) cells; experiment: Inhibition of proliferation of BAF3-EGFR (L858R/T790M/C797S) cells, CCK-8; assay type: cell-based; conditions: Ba/F3 EGFR, 72 h, read-out: BAF3(EGFR T790M L858R C797S) cell inhibitory activity IC50
Description: A flask of EGFR (L858R/T790M/C797S) cells in the logarithmic growth phase and good conditions was taken, and the cells were collected and added to a centrifuge tube. 20 μL of cells were taken and counted, and the required number of cells (mL) was pipetted and centrifuged at 1200 rpm for 3 min. The supernatant was discarded, and an appropriate amount of plating medium (RPMI medium+10% FBS) was added to adjust the cell density to 1.5×10^5 cells/mL. The cells were seeded on a 96-well plate at 100 μL/well using a multi-channel pipette and cultured in a cell incubator at 37° C., 5% CO2 with saturated humidity. After overnight incubation, compounds were loaded using a nanoliter pipettor, 2 duplicate wells were set for each concentration, and cells without compound added were used as negative controls.
Inhibition rate (%)=(mean value of negative control group-mean value of experimental group)/(mean value of negative control group−mean value of blank group)×100%.
A dose-response curve was fitted by four-parameter analysis, with the logarithm of compound concentration serving as abscissa and inhibition rate serving as ordinate, such that IC50 was calculated.

Sequence of EGFR (d746-750/T790M/C797S) (P00533 other isoform, or with tags, fused parts or gaps T790M/C797S/del 1-694/del 746-750 limits assumed): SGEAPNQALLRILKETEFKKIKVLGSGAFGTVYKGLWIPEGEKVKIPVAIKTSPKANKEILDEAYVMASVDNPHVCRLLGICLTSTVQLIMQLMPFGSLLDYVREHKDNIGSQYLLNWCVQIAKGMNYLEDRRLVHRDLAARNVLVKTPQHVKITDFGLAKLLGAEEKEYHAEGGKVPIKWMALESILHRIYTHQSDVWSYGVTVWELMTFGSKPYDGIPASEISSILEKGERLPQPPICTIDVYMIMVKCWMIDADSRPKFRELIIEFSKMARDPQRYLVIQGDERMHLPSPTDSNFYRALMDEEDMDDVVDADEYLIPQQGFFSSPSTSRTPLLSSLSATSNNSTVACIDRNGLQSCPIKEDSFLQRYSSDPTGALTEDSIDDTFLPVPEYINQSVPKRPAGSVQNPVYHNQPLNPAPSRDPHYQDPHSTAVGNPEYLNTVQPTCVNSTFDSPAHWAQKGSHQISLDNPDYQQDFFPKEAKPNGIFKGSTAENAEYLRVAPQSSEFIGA
Sequence of EGFR (d746-750 (d19)/T790M) (P00533 other isoform, or with tags, fused parts or gaps T790M/del 1-668/del 746-750 limits assumed): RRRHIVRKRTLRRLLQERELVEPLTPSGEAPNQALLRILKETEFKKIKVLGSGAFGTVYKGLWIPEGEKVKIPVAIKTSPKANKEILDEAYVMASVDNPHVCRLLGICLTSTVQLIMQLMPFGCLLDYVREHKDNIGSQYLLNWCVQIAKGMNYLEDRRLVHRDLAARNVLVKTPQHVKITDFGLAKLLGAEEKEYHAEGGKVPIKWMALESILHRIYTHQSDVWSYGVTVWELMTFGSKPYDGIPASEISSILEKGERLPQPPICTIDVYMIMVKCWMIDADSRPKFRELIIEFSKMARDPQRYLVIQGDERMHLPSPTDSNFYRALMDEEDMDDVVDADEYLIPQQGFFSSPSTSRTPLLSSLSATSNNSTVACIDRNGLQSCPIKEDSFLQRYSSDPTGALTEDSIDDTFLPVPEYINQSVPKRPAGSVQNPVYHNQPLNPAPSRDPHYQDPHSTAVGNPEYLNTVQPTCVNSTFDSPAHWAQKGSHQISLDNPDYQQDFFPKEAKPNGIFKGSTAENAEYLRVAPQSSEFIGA

SMILES	IC50 [1] [nM]	IC50 [2] [nM]	IC50 [3] [nM]
Cc1cc2cc(n1)-c1cnn(C)c1OCCC[C@@H](C1CC1)CN1/C(=N/C2=O)Nc2cc(NCCN3CCOCC3)ccc21 [Example 3]	0.014	0.028	
Cc1cc2cc(n1)-c1cnn(C3CC3)c1OCCC[C@@H](C)CN1/C(=N/C2=O)Nc2cc(NCCN3CCOCC3)ccc21 [Example 5]	0.05	0.074	
Cc1cc2cc(n1)-c1cnn(C3CC3)c1OCCC[C@@H](C)CN1/C(=N/C2=O)Nc2cc(NC3CCN(C)CC3)ccc21 [Example 12]	0.15	0.17	
Cc1cc2cc(n1)-c1cnn(C3CC3)c1OCCC[C@@H](C)CN1/C(=N/C2=O)Nc2cc(N[C@@H]3CCOC3)ccc21 [Example 13]	0.058	0.11	
Cc1cc2cc(n1)-c1cnn(C3CC3)c1OCCC[C@@H](C)CN1/C(=N/C2=O)Nc2cc(NC[C@H]3COCCO3)ccc21 [Example 14]	0.068	0.1	
Cc1cc2cc(n1)-c1cnn(C3CC3)c1OCCC[C@@H](C)CN1/C(=N/C2=O)Nc2ccc(N3CC[C@H](O)C3)cc21 [Example 16]	0.06	0.063	
Cc1cc2cc(n1)-c1cnn(C)c1OCCC[C@@H](C1CC1)CN1/C(=N/C2=O)Nc2cc(N[C@@H]3CCCOC3)ccc21 [Example 18]	0.02	0.042	
Cc1cc2cc(n1)-c1cnn(C)c1OCCC[C@@H](C1CC1)CN1/C(=N/C2=O)Nc2cc(NC[C@H]3COCCO3)ccc21 [Example 19]	0.015	0.028	
Cc1cc2cc(n1)-c1cnn(C)c1OCCC[C@@H](C1CC1)CN1/C(=N/C2=O)Nc2ccc(N3CC[C@H](O)C3)cc21 [Example 21]	0.032	0.059	
Cc1cc2cc(n1)-c1cnn(C)c1OCCC[C@@H](C1CC1)CN1/C(=N/C2=O)Nc2cc(NC3COC3(C)C)ccc21 (some centres unmarked) [Example 30]	0.03	0.046	
Cc1cc2cc(n1)-c1cnn(C)c1OCCC[C@@H](C1CC1)CN1/C(=N/C2=O)Nc2cc(NC3C(C)(C)OC3(C)C)ccc21 [Example 31]	0.018	0.031	
Cc1cc2cc(n1)-c1cnn(C)c1OCCC[C@@H](C1CC1)CN1/C(=N/C2=O)Nc2cc(NC3CNC3)ccc21 [Example 32]	0.01	0.013	
Cc1cc2cc(n1)-c1cnn(C)c1OCCC[C@@H](C1CC1)CN1/C(=N/C2=O)Nc2cc(NC3(C)CNC3)ccc21 [Example 34]	0.014	0.016	
Cc1cc2cc(n1)-c1cnn(C)c1OCCC[C@@H](C1CC1)CN1/C(=N/C2=O)Nc2cc(N[C@@H]3CCOC3)ccc21 [Example 43]	0.015	0.026	
CNCCCNc1ccc2c(c1)N/C1=N\C(=O)c3cc(C)nc(c3)-c3cnn(C)c3OCCC[C@@H](C3CC3)CN12 [Example 49]	0.03	0.039	
Cc1cc2cc(n1)-c1cnn(C)c1OCCC[C@@H](C1CC1)CN1/C(=N/C2=O)Nc2cc(NCCCN)ccc21 [Example 50]	0.038	0.053	
Cc1cc2cc(n1)-c1cnn(C)c1OCCC[C@@H](C1CC1)CN1/C(=N/C2=O)Nc2cc(NCCCCN(C)C)ccc21 [Example 51]	0.013	0.02	< 5

SMILES	IC50 [1] [nM]	IC50 [2] [nM]	IC50 [3] [nM]
CNCCCCNc1ccc2c(c1)N/C1=N\C(=O)c3cc(C)nc(c3)-c3cnn(C)c3OCCC[C@@H](C3CC3)CN12 [Example 52]	0.021	0.028	< 5
Cc1cc2cc(n1)-c1cnn(C)c1OCCC[C@@H](C1CC1)CN1/C(=N/C2=O)Nc2cc(NCCCCN)ccc21 [Example 53]	0.0098	0.013	< 5
Cc1cc2cc(n1)-c1cnn(C)c1OCCC[C@@H](C1CC1)CN1/C(=N/C2=O)Nc2cc(N[C@H](C)CN(C)C)ccc21 [Example 67]		0.083	< 5
Cc1cc2cc(n1)-c1cnn(C)c1OCCC[C@@H](C1CC1)CN1/C(=N/C2=O)Nc2cc(NCCN3CCCCC3)ccc21 [Example 73]			< 5
Cc1cc2cc(n1)-c1cnn(C)c1OCCC[C@@H](C1CC1)CN1/C(=N/C2=O)Nc2cc(NC3CCC3)ccc21 [Example 79]	0.028	0.153	
Cc1cc2cc(n1)-c1cnn(C)c1OCCC[C@@H](C1CC1)CN1/C(=N/C2=O)Nc2ccc(NCCCN3CCCC3)cc21 [Example 84]	0.018	0.042	
Cc1cc2cc(n1)-c1cnn(C)c1OCCC[C@@H](C1CC1)CN1/C(=N/C2=O)Nc2ccc(NC3CCCC3)cc21 [Example 87]	0.058	0.318	
Cc1cc2cc(n1)-c1cnn(C)c1OCCC[C@@H](C1CC1)CN1/C(=N/C2=O)Nc2cc(NC3CC(N(C)C)C3)ccc21 (some centres unmarked) [Example 93]	0.11		
Cc1cc2cc(n1)-c1cnn(C)c1OCCC[C@@H](C1CC1)CN1/C(=N/C2=O)Nc2cc(NC3CC(F)C3)ccc21 (some centres unmarked) [Example 94]	0.75		
Cc1cc2cc(n1)-c1cnn(C)c1OCCC[C@@H](C1CC1)CN1/C(=N/C2=O)Nc2ccc(NC(=O)CN(C)C)cc21 [Example 111]		0.073	< 5
Cc1cc2cc(n1)-c1cnn(C)c1OCCC[C@@H](C1CC1)CN1/C(=N/C2=O)Nc2ccc(NC(=O)CCCN(C)C)cc21 [Example 113]		0.066	
Cc1cc2cc(n1)-c1cnn(C)c1OCCC[C@@H](C1CC1)CN1/C(=N/C2=O)Nc2cc(N[C@H](C)CN3CCCCC3)ccc21 [Example 137]		0.085	< 5
Cc1cc2cc(n1)-c1cnn(C)c1OCCC[C@@H](C1CC1)CN1/C(=N/C2=O)Nc2cc(N[C@@H](C)CN3CCCCC3)ccc21 [Example 138]		0.087	< 5
Cc1cc2cc(n1)-c1cnn(C)c1OCCC[C@@H](C1CC1)CN1/C(=N/C2=O)Nc2cc(N[C@@H](C)CCN3CCCCC3)ccc21 [Example 140]		0.077	< 5
Cc1cc2cc(n1)-c1cnn(C)c1OCCC[C@@H](C1CC1)CN1/C(=N/C2=O)Nc2ccc(N[C@@H](C)CN3CCCCC3)cc21 [Example 142]		0.079	< 5
[2H]C([2H])([2H])N(C[C@@H](C)Nc1ccc2c(c1)N1C[C@H](C3CC3)CCCOc3c(cnn3C)-c3cc(cc(C)n3)C(=O)/N=C/1N2)C([2H])([2H])[2H] [Example 145]			< 5
Cc1cc2cc(n1)-c1cnn(C)c1OCCC[C@@H](C1CC1)CN1/C(=N/C2=O)Nc2cc(N[C@@H]3CC[C@H](O)C3)ccc21 [Example 150]			< 5

Source: patent publication US20250034165A1, “COMPOUND CONTAINING CYCLOALKYL OR HALOALKYL” (CHIA TAI TIANQING PHARMACEUTICAL GROUP CO., LTD., priority 2021, published 2025)
